Holding throughout (format): binding
Test [1] concerns the target T1, human HER2 (23-652) (Homo sapiens, UniProt P04626). The experiment in a line: Surface plasmon resonance (SPR) for assessment of peptide affinity, human HER2. Also on record: towards human HER2 (23-652) and mouse HER2 (23-653); made in house. Summed up:
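Binding kinetics fitted from sensorgrams with 280 s peptide association then 3000 s dissociation (30 uL/min), using HER2 (23-652) either directly immobilized (SA/CM5) or anti-Fc-captured; 3 M magnesium chloride used for regeneration.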

Test [2] addresses T2, mouse HER2 (23-653) (Mus musculus, UniProt P70424). Description: Surface plasmon resonance (SPR) for assessment of peptide affinity, mouse HER2. Further details: mouse HER2 (23-653) using a Cy5 labeled peptide as a probe; made in house. The source says: Each protein was immobilized either onto a SA sensorchip (Cytiva, BR-1005-31) or CM5 sensorchip (Cytiva, BR-1005-30) to a density of 800-2000 RU.
(In general: Surface plasmon resonance follows binding to a sensor surface in real time, without labels.)

Test [3] addresses T1, human HER2 (23-652). The experiment in a line: TR-FRET competition assay for peptide potency, human HER2. Further details: towards human HER2 (23-652) and mouse HER2 (23-653); made in house; host or cells: mammalian cells. (In TR-FRET formats the signal depends on donor and acceptor labels being close together.)
Test [4] has as its target T2, mouse HER2 (23-653). The experiment in a line: TR-FRET competition assay for peptide potency, mouse HER2. Also on record: mouse HER2 (23-653) using a Cy5 labeled peptide as a probe; made in house; host or cells: mammalian cells.
[5] abbreviates: SPR, human HER2 extracellular domain, 25° C., 1:1 binding model, read-out: huHER2-SPR-ONC KD.
[6] abbreviates: SPR, mouse HER2 extracellular domain, 25° C., 1:1 binding model, read-out: moHER2-SPR-ONC KD.
Setting [7] is: TR-FRET competition with Cy5 labeled peptide probe, 0.1 nM mouse HER2, 24 h incubation, read-out: moHER2 TR-FRET IC50.

Where a name gives a salt, the structure may show the parent alone. Read-outs that look alike come from different tables or passages of the source. Positions of bridges follow the written chain, without caps; N, C: chain ends. Non-standard residues stand in square brackets, D forms with d. Residues, ends and D or L forms follow the SMILES beside them. Trp(5-OH) = N[C@@H](Cc1c[nH]c2ccc(O)cc12)C(=O)O; NMePhe(4-F) = CN[C@@H](Cc1ccc(F)cc1)C(=O)O; NMehPhe = CN[C@@H](CCc1ccccc1)C(=O)O; NMeE = CN[C@@H](CCC(=O)O)C(=O)O; Gly(cPr) = N[C@H](C(=O)O)C1CC1; NMeD = CN[C@@H](CC(=O)O)C(=O)O; NMehCys = CN[C@@H](CCS)C(=O)O; NMeK = CN[C@@H](CCCCN)C(=O)O; 3Amb = NCc1cccc(C(=O)O)c1; NMeS = CN[C@@H](CO)C(=O)O; Dap = NC[C@H](N)C(=O)O

The Kd is the concentration at which binding is half-saturated. A word on the IC50: it is the concentration needed to halve the response being measured.

As for `CN1C(=O)[C@H](CO)NC(=O)[C@H](Cc2ccc(O)cc2)NC(=O)c2cccc(c2)CNC(=O)C[C@@H](C(=O)N(C)[C@@H](Cc2ccc(F)cc2)C(N)=O)N(C)C(=O)[C@H](C2CC2)NC(=O)[C@H](Cc2c[nH]c3ccccc23)NC(=O)[C@H](Cc2c[nH]c3ccc(O)cc23)NC(=O)[C@H](CO)N(C)C(=O)[C@@H]1CCc1ccccc1` [Example A24, (4S,7S,10S,13S,16S,19S,22S,25S)-19-((1H-indol-3-yl)methyl)-N-((S)-1-amino-3-(4-fluorophenyl)-1-oxopropan-2-yl)-22-cyclopropyl-16-((5-hydroxy-1H-indol-3-yl)methyl)-4-(4-hydroxybenzyl)-7,13-bis(hydroxymethyl)-N,9,12,24-tetramethyl-2,5,8,11,14,17,20,23,27-nonaoxo-10-phenethyl-3,6,9,12,15,18,21,24,28-nonaaza-1(1,3)-benzenacyclononacosaphane-25-carboxamide] ([3Amb]YS[NMehPhe][NMeS][Trp(5-OH)]W[Gly(cPr)][NMeD][NMePhe(4-F)]-NH2; lactam N-9), the Kd worked out at 2810 nM at human HER2 (23-652) [1] (setting [5]) and 5080 nM at mouse HER2 (23-653) [2] (setting [6]). Besides, the IC50 on human HER2 (23-652) [3] (read-out: huHER2 TR-FRET IC50) and at mouse HER2 (23-653) [4] (setting [7]) was more than 1000 nM in each case.
For `CC(=O)NCCCC[C@H]1C(=O)N[C@@H](Cc2c[nH]c3ccc(O)cc23)C(=O)N[C@@H](Cc2c[nH]c3ccccc23)C(=O)N[C@@H](C2CC2)C(=O)N(C)[C@H](C(=O)N(C)[C@@H](Cc2ccc(F)cc2)C(N)=O)CCSSC[C@H](N)C(=O)N[C@@H](Cc2ccc(O)cc2)C(=O)N[C@@H](CO)C(=O)N(C)[C@@H](CCc2ccccc2)C(=O)N1C` [Example A56, (5S,8S,11S,14S,17S,20S,23S,26S,29R)-11-((1H-indol-3-yl)methyl)-17-(4-acetamidobutyl)-29-amino-N-((S)-1-amino-3-(4-fluorophenyl)-1-oxopropan-2-yl)-8-cyclopropyl-14-((5-hydroxy-1/-indol-3-y1)methyl)-26-(4-hydroxybenzyl)-23-(hydroxymethyl)-N,6,18,21-tetramethyl-7,10,13,16,19,22,25,28-octaoxo-20-phenethyl-1,2-dithia-6,9,12,15,18,21,24,27-octaazacyclotriacontane-5-carboxamide TFA salt] (H-CYS[NMehPhe][NMeK](Ac)[Trp(5-OH)]W[Gly(cPr)][NMehCys][NMePhe(4-F)]-NH2; disulfide 1-9), the results for the Kd on human HER2 (23-652) [1] (setting [5]) and at mouse HER2 (23-653) [2] (setting [6]) were 443 nM and 413 nM, respectively. For the same compound, the half-inhibitory concentration (IC50) on human HER2 (23-652) [3] (read-out: huHER2 TR-FRET IC50) amounted to 229 nM; at mouse HER2 (23-653) [4] (setting [7]), 755 nM.
Consider `CC(=O)N[C@H]1CCCC(=O)NC[C@@H](C(=O)N(C)[C@@H](Cc2ccc(F)cc2)C(=O)N[C@@H](CCCCNC(=O)CN2CCN(CC(=O)O)CCN(CC(=O)O)CCN(CC(=O)O)CC2)C(N)=O)N(C)C(=O)[C@H](C2CC2)NC(=O)[C@H](Cc2c[nH]c3ccccc23)NC(=O)[C@H](Cc2c[nH]c3ccc(O)cc23)NC(=O)[C@H](CCCCNC(=O)CO)N(C)C(=O)[C@H](CCc2ccccc2)N(C)C(=O)[C@H](CO)NC(=O)[C@H](Cc2ccc(O)cc2)NC1=O` [Example B5], for which the equilibrium dissociation constant (Kd) on human HER2 (23-652) [1] (setting [5]) is less than 0.1 nM; at mouse HER2 (23-653) [2] (setting [6]) it was 0.1 nM. Moreover, the results for the IC50 on human HER2 (23-652) [3] (read-out: huHER2 TR-FRET IC50) and on mouse HER2 (23-653) [4] (setting [7]) were less than 0.1 nM and 0.2 nM, respectively.
`CC(=O)NCCCC[C@H]1C(=O)N[C@@H](Cc2c[nH]c3ccc(O)cc23)C(=O)N[C@@H](Cc2c[nH]c3ccccc23)C(=O)N[C@@H](C2CC2)C(=O)N(C)[C@H](C(=O)N(C)[C@@H](Cc2ccc(F)cc2)C(=O)N[C@@H](CCCCNC(=O)CN2CCN(CC(=O)O)CCN(CC(=O)O)CCN(CC(=O)O)CC2)C(N)=O)CNC(=O)CCC[C@H](NC(=O)CCC(=O)O)C(=O)N[C@@H](Cc2ccc(O)cc2)C(=O)N[C@@H](CO)C(=O)N(C)[C@@H](CCc2ccccc2)C(=O)N1C` [Example C11]: the Kd on human HER2 (23-652) [1] (setting [5]) and on mouse HER2 (23-653) [2] (setting [6]) was less than 0.1 nM in each case. Also, the IC50 is less than 0.1 nM at human HER2 (23-652) [3] (TR-FRET competition with Cy5 labeled peptide probe, 0.1 nM human HER2, 24 h incubation, read-out: huHER2 TR-FRET IC50) and 0.1 nM on mouse HER2 (23-653) [4] (setting [7]).
With `CN1C(=O)[C@H](CO)NC(=O)[C@H](Cc2ccc(O)cc2)NC(=O)[C@@H](N)CNC(=O)CC[C@@H](C(=O)N(C)[C@@H](Cc2ccc(F)cc2)C(N)=O)N(C)C(=O)[C@H](C2CC2)NC(=O)[C@H](Cc2c[nH]c3ccccc23)NC(=O)[C@H](Cc2c[nH]c3ccc(O)cc23)NC(=O)[C@H](CO)N(C)C(=O)[C@@H]1CCc1ccccc1` [Example A34, (3S,6S,9S,12S,15S,18S,21S,24S,30S)-6-((1H-indol-3-yl)methyl)-24-amino-N-((S)-1-amino-3-(4-fluorophenyl)-1-oxopropan-2-yl)-3-cyclopropyl-9-((5-hydroxy-1H-indol-3-yl)methyl)-21-(4-hydroxybenzyl)-12,18-bis(hydroxymethyl)-N,1,13,16-tetramethyl-2,5,8,11,14,17,20,23,27-nonaoxo-15-phenethyl-1,4,7,10,13,16,19,22,26-nonaazacyclotriacontane-30-carboxamide TFA salt] (H-[Dap]YS[NMehPhe][NMeS][Trp(5-OH)]W[Gly(cPr)][NMeE][NMePhe(4-F)]-NH2; lactam 1-9), the results for the Kd on human HER2 (23-652) [1] and at mouse HER2 (23-653) [2] were 68 nM and 64 nM, respectively. For the same compound, the half-inhibitory concentration (IC50) at human HER2 (23-652) [3] (huHER2 TR-FRET IC50, TR-FRET competition with Cy5 labeled peptide probe, 0.1 nM human HER2, 24 h incubation) was 158 nM; at human HER2 (23-652) [3] (huHER2 TR-FRET IC50, recalculated value achieved after further repetition, value in parentheses (**): recalculated after further repetition) it was 118 nM; on mouse HER2 (23-653) [4] (moHER2 TR-FRET IC50, TR-FRET competition with Cy5 labeled peptide probe, 0.1 nM mouse HER2, 24 h incubation) it was 296 nM; on mouse HER2 (23-653) [4] (moHER2 TR-FRET IC50, recalculated value achieved after further repetition, value in parentheses (**): recalculated after further repetition) it was 175 nM.
On to `CC(=O)NCCCC[C@H]1C(=O)N[C@@H](Cc2c[nH]c3ccc(O)cc23)C(=O)N[C@@H](Cc2c[nH]c3ccccc23)C(=O)N[C@@H](C2CC2)C(=O)N(C)[C@H](C(=O)N(C)[C@@H](Cc2ccc(F)cc2)C(=O)N[C@@H](CCCCNC(=O)CCC(C(=O)O)N2CCN(CC(=O)O)CCN(CC(=O)O)CC2)C(N)=O)CNC(=O)CCC[C@H](NC(C)=O)C(=O)N[C@@H](Cc2ccc(O)cc2)C(=O)N[C@@H](CO)C(=O)N(C)[C@@H](CCc2ccccc2)C(=O)N1C` (stereo partly drawn) [Example B13], for which the Kd on human HER2 (23-652) [1] (setting [5]) and at mouse HER2 (23-653) [2] (setting [6]) was less than 0.1 nM each time. The half-inhibitory concentration (IC50) on human HER2 (23-652) [3] (read-out: huHER2 TR-FRET IC50) and on mouse HER2 (23-653) [4] (setting [7]) was less than 0.1 nM throughout.
Turning to `CC(=O)NCCCC[C@H]1C(=O)N[C@@H](Cc2c[nH]c3ccc(O)cc23)C(=O)N[C@@H](Cc2c[nH]c3ccccc23)C(=O)N[C@@H]([C@H](C)O)C(=O)N(C)[C@H](C(=O)N(C)[C@@H](Cc2ccc(F)cc2)C(=O)N[C@@H](CCCCNC(=O)N2CCN(CC(=O)O)CC2)C(N)=O)CNC(=O)CC[C@H](NC(=O)CCNC(=O)CN2CCN(CC(=O)O)CCN(CC(=O)O)CCN(CC(=O)O)CC2)C(=O)N[C@@H](Cc2ccc(O)cc2)C(=O)N[C@@H](CO)C(=O)N(C)[C@@H](CCc2ccccc2)C(=O)N1C` [Example C28], the Kd at human HER2 (23-652) [1] (setting [5]) turned out to be 0.6 nM; on mouse HER2 (23-653) [2] (setting [6]) it was 3.1 nM. The half-inhibitory concentration (IC50) at human HER2 (23-652) [3] (value in parentheses (**): recalculated after further repetition, read-out: huHER2 TR-FRET IC50, recalculated value achieved after further repetition) is 1.3 nM; at mouse HER2 (23-653) [4] (setting [7]) it was 4.4 nM.

Source of the values: patent publication US20250332300A1 (priority 2024, published 2025).
